Source: ChEMBL document CHEMBL1201862, “PubChem BioAssay data set” (2004)
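Following 48 hours of exposure in 96-well plates, responses at five concentrations were used to interpolate endpoints linearly. GI50 = concentration required for 50% inhibition of growth.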 Activity calls are given as the source filed them. Cut-off read from the data, not from the text of the source: active = GI50 up to about 1.1 µM and inactive = higher.

Experiments:
Assay in all cases: DTP human tumour cell line panel, 48 h
Malme-3M = test system: Malme-3M
OVCAR-5 = test system: OVCAR-5
SNB-75 = test system: SNB-75
SNB-78 = test system: SNB-78
HOP-92 = test system: HOP-92
U-251 = test system: U-251
HL-60 = test system: HL-60
SF-268 = test system: SF-268
HOP-18 = test system: HOP-18
NCI-H522 = test system: NCI-H522
UO-31 = test system: UO-31
COLO 205 = test system: COLO 205
786-0 = test system: 786-0
LXFL 529 = test system: LXFL 529
SW-620 = test system: SW-620
SF-295 = test system: SF-295
M14 = test system: M14
DMS-114 = test system: DMS-114
HCT-116 = test system: HCT-116
SR = test system: SR
CAKI-1 = test system: CAKI-1
HOP-62 = test system: HOP-62
KM-20L2 = test system: KM-20L2
OVCAR-3 = test system: OVCAR-3
HCC 2998 = test system: HCC 2998
DLD-1 = test system: DLD-1
A549 = test system: A549
NCI-H460 = test system: NCI-H460
KM12 = test system: KM12
SN12C = test system: SN12C
DMS-273 = test system: DMS-273
UACC-257 = test system: UACC-257
NCI-H23 = test system: NCI-H23
SF-539 = test system: SF-539
LOX IMVI = test system: LOX IMVI
OVCAR-4 = test system: OVCAR-4
SNB-19 = test system: SNB-19
OVCAR-8 = test system: OVCAR-8
SK-MEL-2 = test system: SK-MEL-2
HT-29 = test system: HT-29
EKVX = test system: EKVX
HCT-15 = test system: HCT-15
CCRF-CEM = test system: CCRF-CEM
MCF7 = test system: MCF7
ACHN = test system: ACHN
BT-549 = test system: BT-549
T47D = test system: T47D
SK-MEL-5 = test system: SK-MEL-5
IGROV-1 = test system: IGROV-1
Hs-578T = test system: Hs-578T
SK-MEL-28 = test system: SK-MEL-28
UACC-62 = test system: UACC-62
RXF 393 = test system: RXF 393
MDA-MB-231 = test system: MDA-MB-231
A498 = test system: A498
PC-3 = test system: PC-3
TK-10 = test system: TK-10
NCI-H226 = test system: NCI-H226
RPMI-8226 = test system: RPMI-8226
NCI/ADR-RES = test system: NCI/ADR-RES
MDA-MB-435 = test system: MDA-MB-435
MDA-N = test system: MDA-N
SK-OV-3 = test system: SK-OV-3
K562 = test system: K562
DU-145 = test system: DU-145
M19-MEL = test system: M19-MEL
MOLT-4 = test system: MOLT-4
XF498 = test system: XF498

O/N=C(\c1ccccc1)N1CCCCC1
GI50 (Malme-3M): 4.19 µM (inactive) | GI50 (OVCAR-5): > 100 µM (inactive) | GI50 (SNB-75): 82.8 µM (inactive) | GI50 (SNB-78): > 100 µM (inactive) | GI50 (HOP-92): > 100 µM (inactive) | GI50 (U-251): > 100 µM (inactive) | GI50 (HL-60): > 100 µM (inactive) | GI50 (SF-268): > 100 µM (inactive) | GI50 (HOP-18): < 0.01 µM (active) | GI50 (NCI-H522): > 100 µM (inactive) | GI50 (UO-31): 66.5 µM (inactive) | GI50 (COLO 205): > 100 µM (inactive) | GI50 (786-0): > 100 µM (inactive) | GI50 (LXFL 529): > 100 µM (inactive) | GI50 (SW-620): > 100 µM (inactive) | GI50 (SF-295): > 100 µM (inactive) | GI50 (M14): > 100 µM (inactive) | GI50 (DMS-114): > 100 µM (inactive) | GI50 (HCT-116): > 100 µM (inactive) | GI50 (SR): > 100 µM (inactive) | GI50 (CAKI-1): > 100 µM (inactive) | GI50 (HOP-62): 92.3 µM (inactive) | GI50 (KM-20L2): > 100 µM (inactive) | GI50 (OVCAR-3): > 100 µM (inactive) | GI50 (HCC 2998): > 100 µM (inactive) | GI50 (DLD-1): > 100 µM (inactive) | GI50 (A549): > 100 µM (inactive) | GI50 (NCI-H460): > 100 µM (inactive) | GI50 (KM12): > 100 µM (inactive) | GI50 (SN12C): > 100 µM (inactive) | GI50 (DMS-273): > 100 µM (inactive) | GI50 (UACC-257): > 100 µM (inactive) | GI50 (NCI-H23): > 100 µM (inactive) | GI50 (SF-539): > 100 µM (inactive) | GI50 (LOX IMVI): > 100 µM (inactive) | GI50 (OVCAR-4): > 100 µM (inactive) | GI50 (SNB-19): > 100 µM (inactive) | GI50 (OVCAR-8): > 100 µM (inactive) | GI50 (SK-MEL-2): > 100 µM (inactive) | GI50 (HT-29): > 100 µM (inactive)

COc1ccc(C[C@@H]2NC[C@@H](O)[C@@H]2OC(C)=O)cc1
GI50 (Malme-3M): 0.0385 µM (active) | GI50 (EKVX): 0.0475 µM (active) | GI50 (HCT-15): 0.0171 µM | GI50 (OVCAR-5): 0.0198 µM (active) | GI50 (CCRF-CEM): 0.00899 µM (active) | GI50 (SNB-75): 0.0132 µM (active) | GI50 (MCF7): 0.0135 µM (active) | GI50 (ACHN): 0.011 µM (active) | GI50 (BT-549): 0.0329 µM (active) | GI50 (T47D): 0.0227 µM (active) | GI50 (HOP-92): 0.00618 µM (active) | GI50 (SK-MEL-5): 0.0104 µM (active) | GI50 (IGROV-1): 0.0435 µM (active) | GI50 (U-251): 0.0173 µM (active) | GI50 (HL-60): 0.00374 µM (active) | GI50 (SF-268): 0.0232 µM (active) | GI50 (Hs-578T): 0.0284 µM (active) | GI50 (SK-MEL-28): 0.0206 µM (active) | GI50 (HOP-18): 1.73 µM (inactive) | GI50 (UACC-62): 0.015 µM (active) | GI50 (RXF 393): 0.00641 µM (active) | GI50 (NCI-H522): 0.0232 µM (active) | GI50 (UO-31): 0.0247 µM (active) | GI50 (MDA-MB-231): 0.0196 µM (active) | GI50 (A498): 0.0157 µM (active) | GI50 (PC-3): 0.0196 µM (active) | GI50 (COLO 205): 0.0102 µM (active) | GI50 (TK-10): 0.0312 µM (active) | GI50 (786-0): 0.0219 µM (active) | GI50 (NCI-H226): 0.0358 µM (active) | GI50 (RPMI-8226): 0.0296 µM (active) | GI50 (LXFL 529): 1.32 µM (inactive) | GI50 (SW-620): 0.0166 µM (active) | GI50 (SF-295): 0.0253 µM (active) | GI50 (M14): 0.0185 µM (active) | GI50 (DMS-114): 1.45 µM (inactive) | GI50 (NCI/ADR-RES): 0.0001 µM (active) | GI50 (HCT-116): 0.0103 µM (active) | GI50 (SR): 0.0164 µM (active) | GI50 (MDA-MB-435): 0.0168 µM (active) | GI50 (CAKI-1): 0.0251 µM (active) | GI50 (HOP-62): 0.0214 µM (active) | GI50 (MDA-N): 0.0212 µM (active) | GI50 (SK-OV-3): 0.0169 µM (active) | GI50 (KM-20L2): 3.95 µM (inactive) | GI50 (OVCAR-3): 0.0256 µM (active) | GI50 (K562): 0.0104 µM (active) | GI50 (HCC 2998): 0.0208 µM (active) | GI50 (DLD-1): 1.77 µM (inactive) | GI50 (A549): 0.0316 µM (active) | GI50 (NCI-H460): 0.0142 µM (active) | GI50 (KM12): 0.027 µM (active) | GI50 (SN12C): 0.0229 µM (active) | GI50 (DMS-273): 0.634 µM (active) | GI50 (UACC-257): 0.0228 µM (active) | GI50 (DU-145): 0.0191 µM (active) | GI50 (M19-MEL): 1.79 µM (inactive) | GI50 (NCI-H23): 0.021 µM (active) | GI50 (SF-539): 0.0234 µM (active) | GI50 (LOX IMVI): 0.00403 µM (active) | GI50 (OVCAR-4): 0.00957 µM (active) | GI50 (SNB-19): 0.0228 µM (active) | GI50 (OVCAR-8): 0.0189 µM (active) | GI50 (MOLT-4): 0.0105 µM (active) | GI50 (SK-MEL-2): 0.039 µM (active) | GI50 (HT-29): 0.0197 µM (active)

Cc1ccc(NC(=O)C(=O)C(C2C(C)CC(=O)C2CC(=O)O)[N+](=O)[O-])cc1 (stereo not given)
GI50 (Malme-3M): > 100 µM (inactive) | GI50 (EKVX): > 100 µM (inactive) | GI50 (HCT-15): > 100 µM | GI50 (OVCAR-5): > 100 µM (inactive) | GI50 (CCRF-CEM): > 100 µM (inactive) | GI50 (SNB-75): > 100 µM (inactive) | GI50 (ACHN): > 100 µM (inactive) | GI50 (SNB-78): > 100 µM (inactive) | GI50 (HOP-92): > 100 µM (inactive) | GI50 (SK-MEL-5): > 100 µM (inactive) | GI50 (IGROV-1): > 100 µM (inactive) | GI50 (U-251): > 100 µM (inactive) | GI50 (HL-60): > 100 µM (inactive) | GI50 (SF-268): > 100 µM (inactive) | GI50 (SK-MEL-28): > 100 µM (inactive) | GI50 (UACC-62): > 100 µM (inactive) | GI50 (XF498): > 100 µM (inactive) | GI50 (RXF 393): > 100 µM (inactive) | GI50 (UO-31): > 100 µM (inactive) | GI50 (A498): > 100 µM (inactive) | GI50 (COLO 205): > 100 µM (inactive) | GI50 (TK-10): > 100 µM (inactive) | GI50 (786-0): > 100 µM (inactive) | GI50 (NCI-H226): > 100 µM (inactive) | GI50 (RPMI-8226): > 100 µM (inactive) | GI50 (LXFL 529): > 100 µM (inactive) | GI50 (SW-620): > 100 µM (inactive) | GI50 (SF-295): > 100 µM (inactive) | GI50 (M14): > 100 µM (inactive) | GI50 (DMS-114): > 100 µM (inactive) | GI50 (HCT-116): > 100 µM (inactive) | GI50 (SR): > 100 µM (inactive) | GI50 (CAKI-1): > 100 µM (inactive) | GI50 (HOP-62): > 100 µM (inactive) | GI50 (SK-OV-3): > 100 µM (inactive) | GI50 (KM-20L2): > 100 µM (inactive) | GI50 (OVCAR-3): > 100 µM (inactive) | GI50 (K562): > 100 µM (inactive) | GI50 (HCC 2998): > 100 µM (inactive) | GI50 (DLD-1): > 100 µM (inactive) | GI50 (A549): > 100 µM (inactive) | GI50 (NCI-H460): > 100 µM (inactive) | GI50 (KM12): > 100 µM (inactive) | GI50 (SN12C): > 100 µM (inactive) | GI50 (UACC-257): > 100 µM (inactive) | GI50 (NCI-H23): > 100 µM (inactive) | GI50 (SF-539): > 100 µM (inactive) | GI50 (LOX IMVI): > 100 µM (inactive) | GI50 (OVCAR-4): > 100 µM (inactive) | GI50 (SNB-19): > 100 µM (inactive) | GI50 (OVCAR-8): > 100 µM (inactive) | GI50 (MOLT-4): > 100 µM (inactive) | GI50 (SK-MEL-2): > 100 µM (inactive) | GI50 (HT-29): > 100 µM (inactive)
